Measurements from US20210221848A1, “POLYMYXIN DERIVATIVES AND THEIR USE IN COMBINATION THERAPY TOGETHER WITH DIFFERENT ANTIBIOTICS” (priority 2014, published 2021).
Read-outs that look alike come from different tables or passages of the source.

Assays:
[1] = test system: P. aeruginosa; settings: absence of a second agent, Table 6B
[2] = test system: P. aeruginosa strains with elevated MICs to Polymyxin B; test: MIC against strains with elevated MICs to Polymyxin B; format: cell-based, Pseudomonas aeruginosa; settings: Table 6D
Outline: (§1)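 Polymyxin B-resistant isolates were inoculated from 0.5 McFarland suspensions of 18-24 hour Mueller-Hinton agar colonies. Testing was done twice per compound, and results disagreeing by over 2-fold were discarded as non-valid. For compounds assayed several times, the modal MIC is given.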

[3] = test system: P. aeruginosa; test: MIC in 1:1 (wt:wt) combination with Rifampicin; format: cell-based, Pseudomonas aeruginosa; settings: 1:1 (wt:wt) with Rifampicin, total drug concentration
Experimental: (§2) The inoculum was prepared by making a direct suspension of isolated colonies (selected from an 18-24 hour Mueller-Hinton agar plate) adjusted to the 0.5 McFarland standard. […] The assays were performed in duplicate. […] In cases where the duplicate values varied by less than 2-fold, the lower of the two values is reported. If a variation of greater than 2-fold was observed, the assay was considered non-valid. Several of the compounds were subjected to multiple tests, and where this is the case, the MIC reflects the modal value obtained.
(§3) MIC values (microgram/mL) refer to the total drug concentration (i.e. test agent plus Rifampicin).

[4] = test system: E. coli; test: MIC in 1:1 (wt:wt) combination with Rifampicin; format: cell-based, Escherichia coli; settings: 1:1 (wt:wt) with Rifampicin, total drug concentration
Experimental: as §2, §3

[5] = test system: E. coli; settings: absence of a second agent, Table 6B
[6] = test system: K. pneumoniae; settings: absence of a second agent, Table 6B
[7] = test system: K. pneumoniae; test: MIC in 1:1 (wt:wt) combination with Rifampicin; format: cell-based, Klebsiella pneumoniae; settings: 1:1 (wt:wt) with Rifampicin, total drug concentration
Experimental: as §2, §3

[8] = test system: A. baumanii strains with elevated MICs to Polymyxin B; test: MIC against strains with elevated MICs to Polymyxin B; format: cell-based, Acinetobacter baumannii; settings: Table 6D
Outline: as §1

[9] = test system: Acinetobacter baumannii NCTC 13301; settings: mouse thigh, 16 h model
[10] = test system: Pseudomonas aeruginosa ATCC 27853; format: in vivo; settings: mouse lungs, P. aeruginosa ATCC 27853, SC at 2, 6 and 10 h post-infection, 16 h infection model, 17.2 mg/kg/dose free base
Experimental: Groups of 7 male neutropenic specific-pathogen-free CD-1 mice weighing 21.5-27.5 g were used. On Day 0, animals were infected with 0.04 mL inoculum by intranasal instillation into mouse nostrils and were kept in an upright position on a string rack for ˜10 min post-infection. […] At 2 h, the CFU count was determined from 3 mice and the remaining mice (7 per test compound groups) were treated with a subcutaneous injection of the drug at +2, 6 and 10 hr post-infection. Test compounds and the comparator polymyxin B were administered at four concentrations (2.6, 8.6, 17.2 and 25.8 mg/kg free base). The vehicle control group (7 mice) was treated with 0.9% saline for injection at 2, 6 and 10 h post-infection.
Sixteen hours after infection, the mice were euthanized humanely. The lungs of each animal were harvested, homogenized and quantitatively cultured onto CLED agar for CFU determination. Decrease of the total CFU compared to control counts at 16 h post-infection was determined for each dose group.
The in vivo efficacy of 4 compounds of the invention (D25, D36, D42 and D50) was evaluated in a mouse lung infection model of P. aeruginosa ATCC 27853. The model was setup as described above with the exception that groups of up to 8 mice were inoculated through intranasal instillation of ˜2.5×10^6 CFUs of P. aeruginosa isolate ATCC 27853 (1.0×10^5 CFU/lung). Test compounds were administered at two concentrations (equivalent to 4.3 and 17.2 mg/kg free base). Three dose levels of polymyxin B sulfate were used as comparator (equivalent to 4.3, 8.6 and 17.2 mg/kg free base).

[11] = test system: E. coli strains with elevated MICs to Polymyxin B; test: MIC against strains with elevated MICs to Polymyxin B; format: cell-based, Escherichia coli; settings: Table 6D
Outline: as §1

[12] = test system: K. pneumoniae strains with elevated MICs to Polymyxin B; test: as above; format: cell-based, Klebsiella pneumoniae; settings: Table 6D
Outline: as §1

[13] = test system: A. baumannii; settings: absence of a second agent, Table 6B
[14] = test system: A. baumannii; test: MIC in 1:1 (wt:wt) combination with Rifampicin; format: cell-based, Acinetobacter baumannii; settings: A. baumannii 053; 1:1 (wt:wt) with Rifampicin; total drug concentration
Experimental: as §2, §3

(trans-5-(2- methylpropyl) piperidine)-3-carbonyl polymyxin B nonapeptide [Example D50]
MIC, P. aeruginosa ATCC 27853 ([1]; P. aeruginosa ATCC 27853): 0.5 micrograms/mL
MIC, P. aeruginosa CCUG 59347 ([1]; P. aeruginosa CCUG 59347): 1 micrograms/mL
MIC P. aeruginosa 065 ([2]; strain 065, elevated MIC to Polymyxin B): 6 micrograms/mL
MIC P. aeruginosa 066 ([2]; strain 066, elevated MIC to Polymyxin B): 4 micrograms/mL
MIC P. aeruginosa 067 ([2]; strain 067, elevated MIC to Polymyxin B): >256 micrograms/mL
MIC in 1:1 combination with rifampicin, P. aeruginosa 063 ([3]; P. aeruginosa 063): 32 microgram/mL
MIC in 1:1 combination with rifampicin, P. aeruginosa 068 ([3]; P. aeruginosa 068): 1 microgram/mL
MIC in 1:1 combination with rifampicin, E. coli 059 ([4]; E. coli 059): ≤0.5 microgram/mL
MIC in 1:1 combination with rifampicin, E. coli 060 ([4]; E. coli 060): ≤0.5 microgram/mL
MIC in 1:1 combination with rifampicin, E. coli ATCC 25922 ([4]; E. coli ATCC 25922): ≤0.5 microgram/mL
MIC, E. coli ATCC 25922 ([5]; E. coli ATCC 25922): 0.06 micrograms/mL
MIC, E. coli NCTC 13441 ([5]; E. coli NCTC 13441): 0.06 micrograms/mL
MIC, K. pneumoniae ATCC 4352 ([6]; K. pneumoniae ATCC 4352): 0.06 micrograms/mL
MIC, K. pneumoniae ATCC BAA-2146 ([6]; K. pneumoniae ATCC BAA-2146): 0.125 micrograms/mL
MIC in 1:1 combination with rifampicin, K. pneumoniae 062 ([7]; K. pneumoniae 062): 1 microgram/mL
MIC in 1:1 combination with rifampicin, K. pneumoniae CCUG 59348 ([7]; K. pneumoniae CCUG 59348): ≤0.5 microgram/mL
MIC A. baumannii 053 ([8]; strain 053, elevated MIC to Polymyxin B): 128 micrograms/mL
MIC A. baumannii 056 ([8]; strain 056, elevated MIC to Polymyxin B): 32 micrograms/mL
MIC A. baumannii 068 ([8]; strain 068, elevated MIC to Polymyxin B): 8 micrograms/mL
MIC A. baumannii 070 ([8]; strain 070, elevated MIC to Polymyxin B): 16 micrograms/mL
Mean log10 CFU reduction vs. control ([9]; 0.215 mg/kg/dose free base SC at 2, 6 and 10 h post-infection): 0.69 log10 CFU
Mean log10 CFU reduction vs. control ([9]; 0.86 mg/kg/dose free base SC at 2, 6 and 10 h post-infection): 4.74 log10 CFU
Mean log10 CFU reduction vs. control ([9]; 2.6 mg/kg/dose free base SC at 2, 6 and 10 h post-infection): 5.05 log10 CFU
Mean log10 CFU reduction vs. control ([9]; 8.6 mg/kg/dose free base SC at 2, 6 and 10 h post-infection): 5.79 log10 CFU
Mean log10 CFU reduction vs. control ([9]; 17.2 mg/kg/dose free base SC at 2, 6 and 10 h post-infection): 5.69 log10 CFU
Mean log10 CFU reduction vs. control [10]: 5.29 log10 CFU
MIC E. coli 058 ([11]; strain 058, elevated MIC to Polymyxin B): 4 micrograms/mL
MIC E. coli 059 ([11]; strain 059, elevated MIC to Polymyxin B): 8 micrograms/mL
MIC E. coli 060 ([11]; strain 060, elevated MIC to Polymyxin B): 4 micrograms/mL
MIC E. coli 061 ([11]; strain 061, elevated MIC to Polymyxin B): 8 micrograms/mL
MIC K. pneumoniae 062 ([12]; strain 062, elevated MIC to Polymyxin B): 64 micrograms/mL
MIC K. pneumoniae 063 ([12]; strain 063, elevated MIC to Polymyxin B): 16 micrograms/mL
MIC K. pneumoniae 064 ([12]; strain 064, elevated MIC to Polymyxin B): 4 micrograms/mL
MIC K. pneumoniae 655 ([12]; strain 655, elevated MIC to Polymyxin B): 16 micrograms/mL
MIC, A. baumannii ATCC BAA-747 ([13]; A. baumannii ATCC BAA-747): 0.25 micrograms/mL
MIC, A. baumannii NCTC 13424 ([13]; A. baumannii NCTC 13424): 0.25 micrograms/mL
MIC in 1:1 combination with rifampicin, A. baumannii 053 [14]: ≤0.5 microgram/mL
